Assay results from PMC7385619, “A triple action CDK4/6-PI3K-BET inhibitor with augmented cancer cell cytotoxicity” (Cell Discovery, 2020).
Like-named read-outs stand apart in the source and are kept apart here.

Experiments:
[1] = tested on: neuroblastoma cells (CHLA-255, CHLA-136, and SMS-KNCR); assay: Cell viability (cytotoxicity) assay, neuroblastoma cells; assay type: cell-based; settings: Homo sapiens, 48 hours, CCK8 or Alamar Blue, curves of Fig. 1f-j, read-out: Half maximal inhibitory concentration (IC50) in cell line cytotoxicity assays, Neuroblastoma
kinome (kinase panel) [2] = target: T1, kinome (kinase panel) (Homo sapiens, UniProt O00750); assay: KINOMEscan assay (Eurofins DiscoverX); assay type: binding; settings: PIK3C2B; 1000 nM; read-out: Percent Control
T1 construct: purchased Eurofins DiscoverX

kinome (kinase panel) [3] = target: T2, kinome (kinase panel) (Homo sapiens, UniProt O14733); assay: KINOMEscan assay (Eurofins DiscoverX); assay type: binding; settings: MKK7 (Entrez MAP2K7); 1000 nM; read-out: Percent Control
T2 construct: purchased Eurofins DiscoverX

kinome (kinase panel) [4] = target: T3, kinome (kinase panel) (Homo sapiens, UniProt O94806); assay: KINOMEscan assay (Eurofins DiscoverX); assay type: binding; settings: PRKD3; 1000 nM; read-out: Percent Control
T3 construct: purchased Eurofins DiscoverX

kinome (kinase panel) [5] = target: T4, kinome (kinase panel) (Homo sapiens, UniProt P10721); assay: KINOMEscan assay (Eurofins DiscoverX); assay type: binding; settings: 1000 nM, read-out: Percent Control
T4 construct: purchased Eurofins DiscoverX
T4 sequence (P10721 26-976): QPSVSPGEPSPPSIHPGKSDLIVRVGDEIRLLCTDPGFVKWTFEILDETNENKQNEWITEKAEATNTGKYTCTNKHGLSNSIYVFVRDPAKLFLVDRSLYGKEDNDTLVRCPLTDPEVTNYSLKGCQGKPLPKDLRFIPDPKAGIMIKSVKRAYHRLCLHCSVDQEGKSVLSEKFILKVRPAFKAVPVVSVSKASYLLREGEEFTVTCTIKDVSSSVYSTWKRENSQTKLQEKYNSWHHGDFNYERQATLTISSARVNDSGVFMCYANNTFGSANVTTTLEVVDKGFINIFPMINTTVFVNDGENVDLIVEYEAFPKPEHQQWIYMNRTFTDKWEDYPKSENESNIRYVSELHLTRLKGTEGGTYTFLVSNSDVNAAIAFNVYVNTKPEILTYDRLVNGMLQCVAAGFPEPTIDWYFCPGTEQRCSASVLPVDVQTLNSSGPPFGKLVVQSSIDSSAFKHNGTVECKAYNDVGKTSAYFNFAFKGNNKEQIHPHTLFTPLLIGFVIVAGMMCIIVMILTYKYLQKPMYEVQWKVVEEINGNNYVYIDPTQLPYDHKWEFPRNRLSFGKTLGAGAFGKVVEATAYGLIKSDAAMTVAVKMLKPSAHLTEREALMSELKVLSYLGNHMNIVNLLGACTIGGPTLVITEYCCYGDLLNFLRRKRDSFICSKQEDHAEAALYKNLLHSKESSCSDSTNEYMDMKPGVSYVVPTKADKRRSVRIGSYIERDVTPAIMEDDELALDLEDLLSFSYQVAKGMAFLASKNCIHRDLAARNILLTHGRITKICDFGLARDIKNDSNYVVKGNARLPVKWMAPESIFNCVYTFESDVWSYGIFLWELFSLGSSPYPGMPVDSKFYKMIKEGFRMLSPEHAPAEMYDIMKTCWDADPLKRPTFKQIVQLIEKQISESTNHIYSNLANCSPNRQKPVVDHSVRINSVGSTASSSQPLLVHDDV

kinome (kinase panel) [6] = target: T5, kinome (kinase panel) (Homo sapiens, UniProt P12931); assay: KINOMEscan assay (Eurofins DiscoverX); assay type: binding; settings: SRC; 1000 nM; read-out: Percent Control
T5 construct: purchased Eurofins DiscoverX

kinome (kinase panel) [7] = target: T6, kinome (kinase panel) (Homo sapiens, UniProt P20794); assay: KINOMEscan assay (Eurofins DiscoverX); assay type: binding; settings: MAK; 1000 nM; read-out: Percent Control
T6 construct: purchased Eurofins DiscoverX

kinome (kinase panel) [8] = target: T7, kinome (kinase panel) (Homo sapiens, UniProt P22694); assay: KINOMEscan assay (Eurofins DiscoverX); assay type: binding; settings: PKAC-beta (Entrez PRKACB); 1000 nM; read-out: Percent Control
T7 construct: purchased Eurofins DiscoverX

kinome (kinase panel) [9] = target: T8, kinome (kinase panel) (Homo sapiens, UniProt P23443); assay: KINOMEscan assay (Eurofins DiscoverX); assay type: binding; settings: S6K1 (RPS6KB1); 1000 nM; read-out: Percent Control
T8 construct: purchased Eurofins DiscoverX

kinome (kinase panel) [10] = target: T9, kinome (kinase panel) (Homo sapiens, UniProt P27361); assay: KINOMEscan assay (Eurofins DiscoverX); assay type: binding; settings: ERK1 (Entrez MAPK3); 1000 nM; read-out: Percent Control
T9 construct: purchased Eurofins DiscoverX

kinome (kinase panel) [11] = target: T10, kinome (kinase panel) (Homo sapiens, UniProt P35626); assay: KINOMEscan assay (Eurofins DiscoverX); assay type: binding; settings: GRK3 (Entrez ADRBK2); 1000 nM; read-out: Percent Control
T10 construct: purchased Eurofins DiscoverX
T10 sequence (P35626 whole entry): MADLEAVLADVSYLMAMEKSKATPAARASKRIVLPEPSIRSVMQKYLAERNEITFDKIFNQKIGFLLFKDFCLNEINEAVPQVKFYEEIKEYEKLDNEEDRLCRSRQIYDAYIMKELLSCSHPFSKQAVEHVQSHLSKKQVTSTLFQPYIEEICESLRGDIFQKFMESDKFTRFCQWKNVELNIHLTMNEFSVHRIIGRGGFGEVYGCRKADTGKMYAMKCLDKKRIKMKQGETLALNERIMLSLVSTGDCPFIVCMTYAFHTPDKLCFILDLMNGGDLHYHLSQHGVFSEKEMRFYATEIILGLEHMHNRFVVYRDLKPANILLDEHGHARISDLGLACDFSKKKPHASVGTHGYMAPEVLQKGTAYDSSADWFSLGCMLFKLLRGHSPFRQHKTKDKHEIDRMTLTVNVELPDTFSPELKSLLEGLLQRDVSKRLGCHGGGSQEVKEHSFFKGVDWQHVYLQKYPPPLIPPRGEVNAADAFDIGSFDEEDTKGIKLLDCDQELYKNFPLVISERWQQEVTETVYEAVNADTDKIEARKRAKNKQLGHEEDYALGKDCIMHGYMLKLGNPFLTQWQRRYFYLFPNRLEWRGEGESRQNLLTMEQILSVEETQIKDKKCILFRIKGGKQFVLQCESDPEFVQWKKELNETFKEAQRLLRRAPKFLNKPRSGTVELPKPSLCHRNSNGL

kinome (kinase panel) [12] = target: T11, kinome (kinase panel) (Homo sapiens, UniProt P42679); assay: KINOMEscan assay (Eurofins DiscoverX); assay type: binding; settings: CTK (Entrez MATK); 1000 nM; read-out: Percent Control
T11 construct: purchased Eurofins DiscoverX

kinome (kinase panel) [13] = target: T12, kinome (kinase panel) (Homo sapiens, UniProt P45983); assay: KINOMEscan assay (Eurofins DiscoverX); assay type: binding; settings: JNK1 (Entrez MAPK8); 1000 nM; read-out: Percent Control
T12 construct: purchased Eurofins DiscoverX

kinome (kinase panel) [14] = target: T13, kinome (kinase panel) (Homo sapiens, UniProt P48729); assay: KINOMEscan assay (Eurofins DiscoverX); assay type: binding; settings: CSNK1A1; 1000 nM; read-out: Percent Control
T13 construct: purchased Eurofins DiscoverX

kinome (kinase panel) [15] = target: T14, kinome (kinase panel) (Homo sapiens, UniProt Q13523); assay: KINOMEscan assay (Eurofins DiscoverX); assay type: binding; settings: PRP4 (Entrez PRPF4B); 1000 nM; read-out: Percent Control
T14 construct: purchased Eurofins DiscoverX

kinome (kinase panel) [16] = target: T15, kinome (kinase panel) (Homo sapiens, UniProt Q32MK0); assay: KINOMEscan assay (Eurofins DiscoverX); assay type: binding; settings: MLCK (Entrez MYLK3); 1000 nM; read-out: Percent Control
T15 construct: purchased Eurofins DiscoverX

kinome (kinase panel) [17] = target: T16, kinome (kinase panel) (Homo sapiens, UniProt Q52WX2); assay: KINOMEscan assay (Eurofins DiscoverX); assay type: binding; settings: SBK1; 1000 nM; read-out: Percent Control
T16 construct: purchased Eurofins DiscoverX
T16 sequence (Q52WX2 whole entry): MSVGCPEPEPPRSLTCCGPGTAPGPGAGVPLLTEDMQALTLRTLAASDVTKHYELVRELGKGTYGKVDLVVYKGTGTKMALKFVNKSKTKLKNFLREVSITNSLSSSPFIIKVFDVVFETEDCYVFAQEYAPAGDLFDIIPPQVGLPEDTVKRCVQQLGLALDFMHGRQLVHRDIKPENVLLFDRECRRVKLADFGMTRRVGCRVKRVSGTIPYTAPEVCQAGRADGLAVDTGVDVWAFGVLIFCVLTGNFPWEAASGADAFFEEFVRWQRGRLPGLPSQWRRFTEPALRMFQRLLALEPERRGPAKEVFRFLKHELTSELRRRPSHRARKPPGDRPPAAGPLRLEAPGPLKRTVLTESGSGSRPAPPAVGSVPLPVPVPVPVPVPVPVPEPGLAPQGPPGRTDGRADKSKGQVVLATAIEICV

kinome (kinase panel) [18] = target: T17, kinome (kinase panel) (Homo sapiens, UniProt Q8N5S9); assay: KINOMEscan assay (Eurofins DiscoverX); assay type: binding; settings: CAMKK1; 1000 nM; read-out: Percent Control
T17 construct: purchased Eurofins DiscoverX
T17 sequence (Q8N5S9 whole entry): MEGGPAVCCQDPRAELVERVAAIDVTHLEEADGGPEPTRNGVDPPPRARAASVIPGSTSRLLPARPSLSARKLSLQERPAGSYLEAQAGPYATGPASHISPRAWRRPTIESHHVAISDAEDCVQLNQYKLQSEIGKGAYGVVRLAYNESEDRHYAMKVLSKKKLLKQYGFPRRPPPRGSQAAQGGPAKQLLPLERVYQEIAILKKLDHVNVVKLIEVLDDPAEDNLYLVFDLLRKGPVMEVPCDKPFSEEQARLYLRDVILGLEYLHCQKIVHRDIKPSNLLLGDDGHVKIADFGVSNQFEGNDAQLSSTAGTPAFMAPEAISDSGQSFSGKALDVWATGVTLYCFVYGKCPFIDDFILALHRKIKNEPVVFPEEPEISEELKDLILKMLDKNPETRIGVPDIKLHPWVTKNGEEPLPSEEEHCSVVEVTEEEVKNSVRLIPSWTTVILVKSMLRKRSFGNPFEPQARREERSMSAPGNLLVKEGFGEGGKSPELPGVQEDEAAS

kinome (kinase panel) [19] = target: T18, kinome (kinase panel) (Homo sapiens, UniProt Q8WU08); assay: KINOMEscan assay (Eurofins DiscoverX); assay type: binding; settings: YANK1 (STK32A); 1000 nM; read-out: Percent Control
T18 construct: purchased Eurofins DiscoverX

kinome (kinase panel) [20] = target: T19, kinome (kinase panel) (Homo sapiens, UniProt Q96NX5); assay: KINOMEscan assay (Eurofins DiscoverX); assay type: binding; settings: CAMK1G; 1000 nM; read-out: Percent Control
T19 construct: purchased Eurofins DiscoverX

kinome (kinase panel) [21] = target: T20, kinome (kinase panel) (Homo sapiens, UniProt Q9BVS4); assay: KINOMEscan assay (Eurofins DiscoverX); assay type: binding; settings: RIOK2; 1000 nM; read-out: Percent Control
T20 construct: purchased Eurofins DiscoverX
T20 sequence (Q9BVS4 whole entry): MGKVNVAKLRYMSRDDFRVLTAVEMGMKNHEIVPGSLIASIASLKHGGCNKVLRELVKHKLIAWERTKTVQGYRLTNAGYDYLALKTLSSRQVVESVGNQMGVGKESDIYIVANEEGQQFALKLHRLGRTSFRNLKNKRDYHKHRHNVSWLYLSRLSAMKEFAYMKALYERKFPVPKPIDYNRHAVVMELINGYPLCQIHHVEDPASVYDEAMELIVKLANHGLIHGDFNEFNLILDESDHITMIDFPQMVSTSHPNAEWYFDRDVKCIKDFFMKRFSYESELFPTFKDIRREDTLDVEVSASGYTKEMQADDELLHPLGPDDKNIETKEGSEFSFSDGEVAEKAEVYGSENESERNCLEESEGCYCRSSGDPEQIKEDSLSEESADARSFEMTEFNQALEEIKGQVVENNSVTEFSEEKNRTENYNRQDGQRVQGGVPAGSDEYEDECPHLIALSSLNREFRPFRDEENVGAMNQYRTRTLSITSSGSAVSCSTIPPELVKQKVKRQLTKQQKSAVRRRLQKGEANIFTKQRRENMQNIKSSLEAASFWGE

kinome (kinase panel) [22] = target: T21, kinome (kinase panel) (Homo sapiens, UniProt Q9H1R3); assay: KINOMEscan assay (Eurofins DiscoverX); assay type: binding; settings: MYLK2; 1000 nM; read-out: Percent Control
T21 construct: purchased Eurofins DiscoverX
T21 sequence (Q9H1R3 whole entry): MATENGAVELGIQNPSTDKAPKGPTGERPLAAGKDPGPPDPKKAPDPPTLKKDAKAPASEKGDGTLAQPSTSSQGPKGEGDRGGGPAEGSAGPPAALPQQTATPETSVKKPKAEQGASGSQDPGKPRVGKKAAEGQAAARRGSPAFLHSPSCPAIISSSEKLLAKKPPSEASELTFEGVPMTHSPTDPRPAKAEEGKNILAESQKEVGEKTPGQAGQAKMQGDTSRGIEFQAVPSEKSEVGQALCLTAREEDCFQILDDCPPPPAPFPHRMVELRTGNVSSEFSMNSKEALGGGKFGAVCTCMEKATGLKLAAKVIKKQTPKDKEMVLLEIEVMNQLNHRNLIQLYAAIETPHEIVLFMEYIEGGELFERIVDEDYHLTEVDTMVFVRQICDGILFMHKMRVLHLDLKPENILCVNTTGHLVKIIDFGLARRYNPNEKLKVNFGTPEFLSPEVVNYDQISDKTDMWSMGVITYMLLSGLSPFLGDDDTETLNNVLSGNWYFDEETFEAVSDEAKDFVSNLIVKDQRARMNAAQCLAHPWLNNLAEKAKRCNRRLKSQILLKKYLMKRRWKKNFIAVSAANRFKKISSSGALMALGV

kinome (kinase panel) [23] = target: T22, kinome (kinase panel) (Homo sapiens, UniProt Q9NRP7); assay: KINOMEscan assay (Eurofins DiscoverX); assay type: binding; settings: STK36; 1000 nM; read-out: Percent Control
T22 construct: purchased Eurofins DiscoverX
T22 sequence (Q9NRP7 whole entry): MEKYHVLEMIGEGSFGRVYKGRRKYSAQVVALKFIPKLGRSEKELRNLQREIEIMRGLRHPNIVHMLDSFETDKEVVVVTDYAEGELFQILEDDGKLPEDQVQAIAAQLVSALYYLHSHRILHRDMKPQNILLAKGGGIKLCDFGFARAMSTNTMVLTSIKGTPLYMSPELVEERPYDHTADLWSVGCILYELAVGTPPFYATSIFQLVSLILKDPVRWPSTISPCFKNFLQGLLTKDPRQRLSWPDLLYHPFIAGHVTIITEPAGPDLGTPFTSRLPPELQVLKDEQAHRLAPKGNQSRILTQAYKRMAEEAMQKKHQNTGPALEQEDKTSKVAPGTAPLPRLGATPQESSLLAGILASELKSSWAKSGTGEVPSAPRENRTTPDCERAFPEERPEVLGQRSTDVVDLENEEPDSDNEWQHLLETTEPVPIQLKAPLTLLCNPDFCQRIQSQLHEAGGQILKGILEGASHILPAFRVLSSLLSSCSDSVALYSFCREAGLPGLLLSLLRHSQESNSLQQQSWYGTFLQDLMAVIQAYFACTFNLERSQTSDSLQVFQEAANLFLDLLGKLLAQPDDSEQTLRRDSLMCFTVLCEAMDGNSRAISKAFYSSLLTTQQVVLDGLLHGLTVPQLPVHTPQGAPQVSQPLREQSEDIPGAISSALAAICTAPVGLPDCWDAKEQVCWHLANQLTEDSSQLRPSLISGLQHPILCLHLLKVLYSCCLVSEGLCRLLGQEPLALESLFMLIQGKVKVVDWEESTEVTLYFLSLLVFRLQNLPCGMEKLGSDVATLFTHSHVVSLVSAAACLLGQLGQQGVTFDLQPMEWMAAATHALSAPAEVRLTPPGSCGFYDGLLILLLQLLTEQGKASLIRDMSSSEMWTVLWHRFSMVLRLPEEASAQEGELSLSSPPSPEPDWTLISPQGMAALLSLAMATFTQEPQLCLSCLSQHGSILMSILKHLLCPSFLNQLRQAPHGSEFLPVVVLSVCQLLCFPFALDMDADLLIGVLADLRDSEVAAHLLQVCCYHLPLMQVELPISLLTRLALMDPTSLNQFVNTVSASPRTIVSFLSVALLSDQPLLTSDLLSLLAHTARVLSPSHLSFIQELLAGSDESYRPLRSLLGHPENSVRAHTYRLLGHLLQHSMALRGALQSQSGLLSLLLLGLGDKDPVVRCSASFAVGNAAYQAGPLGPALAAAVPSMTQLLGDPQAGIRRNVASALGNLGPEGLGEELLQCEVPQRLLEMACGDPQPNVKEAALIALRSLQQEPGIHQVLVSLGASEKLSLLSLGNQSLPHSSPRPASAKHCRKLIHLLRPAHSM

kinome (kinase panel) [24] = target: T23, kinome (kinase panel) (Homo sapiens, UniProt Q9UEW8); assay: KINOMEscan assay (Eurofins DiscoverX); assay type: binding; settings: STK39; 1000 nM; read-out: Percent Control
T23 construct: purchased Eurofins DiscoverX

kinome (kinase panel) [25] = target: T24, kinome (kinase panel) (Homo sapiens, UniProt Q9UIK4); assay: KINOMEscan assay (Eurofins DiscoverX); assay type: binding; settings: DAPK2; 1000 nM; read-out: Percent Control
T24 construct: purchased Eurofins DiscoverX

kinome (kinase panel) [26] = target: T25, kinome (kinase panel) (Plasmodium falciparum, UniProt P61075); assay: KINOMEscan assay (Eurofins DiscoverX); assay type: binding; settings: PFPK5(P.falciparum) (Entrez MAL13P1.279); 1000 nM; read-out: Percent Control
T25 construct: purchased Eurofins DiscoverX

kinome (kinase panel) [27] = assay: KINOMEscan assay (Eurofins DiscoverX); assay type: binding; settings: for Percent Control: 1000 nM

CN(C)C(=O)c1cc2cnc(Nc3ccc(-c4csc5c(=O)cc(N6CCOCC6)oc45)cc3)nc2n1C1CCCC1 [SRX3177]
IC50 [1]: 550 nM
remaining binding at 1 µM (kinome (kinase panel) [2]): 86%
remaining binding at 1 µM (kinome (kinase panel) [3]): 46%
remaining binding at 1 µM (kinome (kinase panel) [4]): 92%
remaining binding at 1 µM (kinome (kinase panel) [5]; KIT-autoinhibited): 73%
remaining binding at 1 µM (kinome (kinase panel) [5]; KIT): 68%
remaining binding at 1 µM (kinome (kinase panel) [6]): 74%
remaining binding at 1 µM (kinome (kinase panel) [7]): 87%
remaining binding at 1 µM (kinome (kinase panel) [8]): 100%
remaining binding at 1 µM (kinome (kinase panel) [9]): 95%
remaining binding at 1 µM (kinome (kinase panel) [10]): 100%
remaining binding at 1 µM (kinome (kinase panel) [11]): 46%
remaining binding at 1 µM (kinome (kinase panel) [12]): 94%
remaining binding at 1 µM (kinome (kinase panel) [13]): 62%
remaining binding at 1 µM (kinome (kinase panel) [14]): 83%
remaining binding at 1 µM (kinome (kinase panel) [15]): 58%
remaining binding at 1 µM (kinome (kinase panel) [16]): 100%
remaining binding at 1 µM (kinome (kinase panel) [17]): 67%
remaining binding at 1 µM (kinome (kinase panel) [18]): 46%
remaining binding at 1 µM (kinome (kinase panel) [19]): 94%
remaining binding at 1 µM (kinome (kinase panel) [20]): 75%
remaining binding at 1 µM (kinome (kinase panel) [21]): 6.6%
remaining binding at 1 µM (kinome (kinase panel) [22]): 97%
remaining binding at 1 µM (kinome (kinase panel) [23]): 92%
remaining binding at 1 µM (kinome (kinase panel) [24]): 71%
remaining binding at 1 µM (kinome (kinase panel) [25]): 89%
remaining binding at 1 µM (kinome (kinase panel) [26]): 96%
specificity in KINOMEscan (kinome (kinase panel) [27]): lack of off-targeting
Percent Control (kinome (kinase panel) [27]; EGFR(L747-E749del, A750P)): 100
Percent Control (kinome (kinase panel) [27]; EGFR(L747-S752del, P753S)): 65
Percent Control (kinome (kinase panel) [27]; EGFR(L747-T751del,Sins)): 75
Percent Control (kinome (kinase panel) [27]; FLT3(ITD)): 49
Percent Control (kinome (kinase panel) [27]; FLT3(ITD,D835V)): 27
Percent Control (kinome (kinase panel) [27]; FLT3(ITD,F691L)): 45
